Measurements reported in the NIST ThermoML archive (doi:10.1021/acs.jced.5b01058).

Conditions: Liquid, Ebulliometric method (Recirculating still)

CCC(C)=O [butanone]
Conditions	vapor or sublimation pressure [kPa]
350.25 K	94

CCCCOC(C)=O [butyl ethanoate]
Conditions	vapor or sublimation pressure [kPa]
361.85 K	29.92
364.47 K	32.95
370.9 K	41.42
373.32 K	45.02
380.1 K	56.43
381.99 K	60
382.01 K	60
382.08 K	60.15
388.06 K	72.71
391.2 K	80.09
394.58 K	88.69
398.35 K	99.03
399.09 K	101.3

CCCC(=O)OCC [ethyl butanoate]
Conditions	vapor or sublimation pressure [kPa]
361.56 K	35.41
365.24 K	40.41
371.33 K	50
373.83 K	54.4
376.28 K	58.98
377.21 K	60
377.23 K	60
379.65 K	65.75
384.82 K	77.2
387.65 K	84.14
390.23 K	90.84
393.63 K	100.4
393.78 K	101.3

CCCCCCC [heptane]
Conditions	vapor or sublimation pressure [kPa]
368.85 K	94

CCCCC(=O)OC [methyl pentanoate]
Conditions	vapor or sublimation pressure [kPa]
361.82 K	29.41
366.7 K	35.06
370.86 K	40.47
374.53 K	45.81
378.84 K	52.83
382.55 K	59.35
383.29 K	60
387.18 K	69.02
391.14 K	77.71
395.42 K	88.17
398.03 K	95.08
400.07 K	100.4
400.48 K	101.3

CCCCCCCC [octane]
Conditions	vapor or sublimation pressure [kPa]
380.76 K	60
380.78 K	60
380.82 K	60
380.84 K	60
380.85 K	60
380.87 K	60
380.94 K	60

CCCCCOC=O [pentyl methanoate]
Conditions	vapor or sublimation pressure [kPa]
370.04 K	33.67
374.41 K	39.15
377.87 K	44.06
381.35 K	49.42
385.08 K	55.79
387.4 K	60
387.46 K	60
387.67 K	60.5
391.65 K	68.46
394.01 K	73.5
396.89 K	80.16
399.55 K	86.56
402.19 K	93.45
405.12 K	101.3

CCCOC(=O)CC [propyl propanoate]
Conditions	vapor or sublimation pressure [kPa]
361.75 K	33.58
367.3 K	40.92
371.88 K	47.9
373.82 K	51.21
378.75 K	60
379.07 K	60.83
383.56 K	70.32
386.81 K	77.9
390.13 K	86.38
392.74 K	93.37
395.51 K	101.3
